Assays:
Test in all cases: relative viability (nuclei count vs DMSO), 5 days (fraction); higher = more cells survive
QS11 + Navitoclax = compound: C1CC2=C(C1)C=C(C=C2)OC3=NC(=C4C(=N3)N(C=N4)CC5=CC=C(C=C5)C6=CC=CC=C6)N[C@@H](CC7=CC=CC=C7)CO [QS11] + CC1(C)CCC(c2ccc(Cl)cc2)=C(CN2CCN(c3ccc(C(=O)NS(=O)(=O)c4ccc(N[C@H](CCN5CCOCC5)CSc5ccccc5)c(S(=O)(=O)C(F)(F)F)c4)cc3)CC2)C1 [Navitoclax] (partner 0.5 µM)
Procedure, shortened: (§1)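 Values are medians from duplicate plates. Each reflects relative viability, defined as the nuclei count of treated wells over that of vehicle wells. Lung cancer cell lines in 1536-well plates were pin-tool dosed one day after seeding with one drug alone or with a fixed anchor-drug dose plus five library-drug doses (not always all listed) in √10 steps, then fixed, stained and imaged at 4× after 5 days.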

AZ628 + Luminespib = compound: CC1=C(C=C(C=C1)NC(=O)C2=CC(=CC=C2)C(C)(C)C#N)NC3=CC4=C(C=C3)N=CN(C4=O)C [AZ628] + CCNC(=O)c1noc(-c2cc(C(C)C)c(O)cc2O)c1-c1ccc(CN2CCOCC2)cc1 [Luminespib] (partner 0.01 µM)
Procedure, shortened: as §1

AZ628 + Pictilisib = compound: CC1=C(C=C(C=C1)NC(=O)C2=CC(=CC=C2)C(C)(C)C#N)NC3=CC4=C(C=C3)N=CN(C4=O)C [AZ628] + CS(=O)(=O)N1CCN(Cc2cc3nc(-c4cccc5[nH]ncc45)nc(N4CCOCC4)c3s2)CC1 [Pictilisib] (partner 1 µM)
Procedure, shortened: as §1

Cell Line	relative viability (QS11 + Navitoclax; first compound 0.253 µM)	relative viability (QS11 + Navitoclax; first compound 0.8 µM)	relative viability (QS11 + Navitoclax; first compound 2.53 µM)	relative viability (QS11 + Navitoclax; first compound 8 µM)	relative viability (AZ628 + Luminespib; first compound 0.08 µM)	relative viability (AZ628 + Luminespib; first compound 0.253 µM)	relative viability (AZ628 + Luminespib; first compound 0.8 µM)	relative viability (AZ628 + Luminespib; first compound 2.53 µM)	relative viability (AZ628 + Luminespib; first compound 8 µM)	relative viability (AZ628 + Pictilisib; first compound 0.08 µM)	relative viability (AZ628 + Pictilisib; first compound 0.253 µM)	relative viability (AZ628 + Pictilisib; first compound 0.8 µM)	relative viability (AZ628 + Pictilisib; first compound 2.53 µM)	relative viability (AZ628 + Pictilisib; first compound 8 µM)	relative viability (QS11 + Navitoclax; first compound 0.08 µM)
NCI-H520	1.06	1.23	1.22	1.14	0.21	0.219	0.209	0.219	0.203	0.312	0.313	0.273	0.212	0.204	
NCI-H2087	1.02	0.733	0.931	0.785	0.132	0.155	0.159	0.193	0.152	0.617	0.35	0.325	0.341	0.291	1.05
NCI-H596	0.961	1.07	0.969	1.24	0.931	1.11	1.02	0.984	0.829	0.36	0.383	0.382	0.376	0.42	0.94
NCI-H2009	1.19	0.972	1.02	0.981	0.967	0.957	0.894	0.966	0.38	0.512	0.311	0.291	0.277	0.226	1.13
NCI-H1993	0.761	0.997	0.946	0.893	0.991	0.683	0.702	0.753	0.613	0.784	0.829	0.705	0.769	0.726	0.833
COR-L23	0.922	0.818	0.865	0.761	0.687	0.737	0.709	0.655	0.404	0.767	0.73	0.651	0.653	0.346	1.06
NCI-H1792	0.744	0.5	0.6	0.479	0.528	0.372	0.334	0.435	0.192	0.251	0.296	0.212	0.223	0.149	
HOP-62	1.15	1.04	0.785	1.22	0.977	0.865	0.759	0.826	0.475	0.607	0.6	0.511	0.441	0.211	1.07
NCI-H1437	1.22	0.718	0.943	0.936	1.23	1.06	1.09	1.16	1.14	0.505	0.476	0.526	0.532	0.483	1.12
NCI-H1755	0.994	0.531	0.898	0.834	0.326	0.446	0.443	0.421	0.278	0.378	0.346	0.29	0.275	0.203	1.03
NCI-H3122	1.06	0.698	1.06	0.817	0.0933	0.0771	0.11	0.0973	0.0958	0.286	0.218	0.214	0.214	0.234	1.01
ChaGo-K-1	1.01	1.42	1.66	1.21	0.546	0.642	0.456	0.504	0.461	0.889		0.474	0.756	0.743	
SW 1573	0.795	0.9	0.842	0.564	0.315	0.258	0.16	0.189	0.171	0.44	0.34	0.367	0.335	0.27	0.937
NCI-H2085	1.17	1.08	1.29	1.41	0.538	0.41	0.468	0.503	0.33	0.506	0.413	0.408	0.386	0.378	1.18
NCI-H727	0.346	0.47	0.301	0.328	0.343	0.337	0.228	0.277	0.203	0.314	0.199	0.184	0.281	0.28	0.389
NCI-H2405	0.757	0.901	0.894	0.768	0.366	0.425	0.411	0.365	0.355	0.222	0.249	0.256	0.255	0.257	0.778
NCI-H1666	0.868	0.932	0.55	0.472	0.978	0.882	0.848	0.843	0.829	0.404	0.296	0.339	0.362	0.313	1.04
BEN	0.0797	0.0702	0.047	0.0634	0.51	0.251	0.485	0.938	0.221	0.621	0.523	0.487	0.49	0.458	0.0566
NCI-H1650	1.12	1.07	1.1	1.2	0.206	0.18	0.201	0.203	0.206	0.741	0.604	0.614	0.5	0.342	1.18
HARA	1.21		1.21	1.35	0.463	0.726	0.548	0.779	0.39	0.331	0.379	0.283	0.337	0.287	1.17
RERF-LC-KJ	1.31	0.98	0.896	0.725	1.21	1.23	1.43	1.08	1.19	0.573	0.633	0.612	0.513	0.487	0.996
NCI-H1975	1.2	1.02	1.59	1.26	0.23	0.304	0.196	0.316	0.228	0.309	0.285	0.29	0.277	0.206	1.09
EPLC-272H	1.17	1.15	1.08	1.36	0.252	0.2	0.527	0.171	0.235	0.273	0.232	0.236	0.266	0.231	1.13
HCC-15	0.795		0.877	0.782	0.262	0.304	0.478	0.361	0.282	0.729	0.533	0.52	0.553	0.33	0.728
COR-L 105	0.618	0.788	0.733	0.83	0.828	0.591	0.761	0.86	0.635	0.466	0.418	0.384	0.353	0.334	0.77
NCI-H1915	0.805		0.865	0.868	0.921	0.816	0.73	0.6	0.365	0.822	0.67	0.693	0.493	0.313	0.816
NCI-H2347	0.826	0.716	0.743	0.839	0.287	0.239	0.301	0.255	0.218	0.321	0.437	0.312	0.32	0.287	0.598
EKVX	0.863		0.891	1.1	0.892	0.857	0.946	0.954	0.864	0.487	0.489	0.471	0.472	0.333	0.957
LC-2-ad	0.357	0.488	0.335	0.384	1.1	1.08	0.458	1.13	0.926	0.472	0.344	0.122	0.261	0.162	0.407

From the supplement of paper PMC10307832
